Reference: publication PMC9961069 (Metabolites, 2023)

Key:
[1] = tested on: MDA-MB468, MDA-MB-231, and MCF-7 breast cancer cell lines; assay: Dose-response viability in breast cancer cell lines (statements not split by line); assay type: cell-based, Human; conditions: 0–100 μM, 72 h
Method: (§1) The incorporation and metabolism of resazurin to resorufin was used to monitor cell viability. MDA-MB-468, MCF7, and MDA-MB-231 cells were grown in 96-well plates with a total of 5000 cells per well in a total volume of 180 μL for 24 h, as described above. After 24 h of growth, cells were treated with increasing concentrations of compounds (0.0457–100 μM) for 72 h. A vehicle control was also performed. […] The volume of treatment added to each well was 20 μL. For folinic acid rescue experiments, 5000 cells were treated with 10 μM compound with or without 300 μg/mL folinic acid (Supelco). After 72 h of treatment, resazurin was added to a final concentration of 44 μM, and cells were incubated for an additional 4 h at 37 °C. The fluorescence of resorufin was monitored on a Synergy MX microplate reader (BioTek) using an excitation wavelength of 540 nm and an emission wavelength of 600 nm. Percent viability relative to the DMSO control was determined. Each treatment was performed in triplicate, and each individual experiment was repeated three times (n = 3).

MDA-MB-231 cells = assay: Resazurin viability assay with or without folinic acid, MDA-MB-231; assay type: cell-based, Human; conditions: 72 h
Method: as §1

Compound: CC1(C)N=C(N)N=C(N)N1c1ccc(CCCCc2ccc(S(=O)(=O)F)cc2)c(Cl)c1 [compound 127159]
- Phenotypic response in viability dose-response [1]: little effect at low concentrations and cytotoxicity at higher concentrations
- Relative Viability (%) – Inhibitor + FA Treatment (MDA-MB-231 cells; MDA-MB-231, 10 μM + 300 μg/mL folinic acid): 106.42 ± 15.0%
- Rescue of viability impairment by folinic acid (MDA-MB-231 cells; MDA-MB-231, 10 μM ± 300 μg/mL FA): largest amplitude of rescue
- Relative Viability (%) – Inhibitor Alone (MDA-MB-231 cells; MDA-MB-231, 10 μM, relative to DMSO): 50.08 ± 8.8%
